Where two headings read alike, the source gives them in different places.
Tests used:
[1] = test system: rat pulmonary arterial rings; assay: Contraction measurement on isolated rat pulmonary arterial rings; conditions: for effect on vascular smooth muscle contraction: norepinephrine (0.1 μM)-induced contraction of rat pulmonary artery; for IC50: Rattus norvegicus
Method: (§1) Experimental animals were used to examine the effect of modafinil on relaxation of contracted blood vessels. Five to six-month-old mice or rats were anaesthetized by an intraperitoneal injection of pentobarbital sodium (50 mg/kg, weight). The mouse thoracic aorta and rat pulmonary artery were dissected out and cut into rings of about 3 mm. Mechanical responses were recorded from the ring segments using a home-made myograph. Each ring was threaded with two strands of tungsten wire (120 μm in diameter). One wire was anchored in the organ bath chamber (1 ml) and the other was connected to a mechano-transducer (Grass, FT-03) mounted on a three dimensional manipulator. The muscle chamber was perfused at a flow rate of 2.5 ml/minute with oxygenated (95% O2/5% CO2) Krebs/Ringer bicarbonate solution with a peristaltic pump. The composition (unit: mM) of the Krebs solution was as follows: NaCl 118.3, KCl 4.7, MgCl2 1.2, KH2PO4 1.22, CaCl2 2.5, NaHCO3 25.0, glucose 11.1, pH 7.4. Endothelial cells were removed by gentle rubbing with a cotton ball and NO production in endothelial cells was inhibited by pretreating with NG-nitro-1-arginine methyl ester (l-NAME). Rings were pre-contracted with 0.1 μM norepinephrine or 30 mM K+.
Since increase in intracellular cAMP in vascular smooth muscle cells activates PKA and phosphorylates myosin light chain active enzyme to relax vascular smooth muscles, the present inventors examined whether modafinil relaxes vascular smooth muscles. Mouse aortic rings or rat pulmonary arterial rings were contracted by norepinephrine (0.1 μM). When the contraction reached a steady-state, modafinil was applied. With the application, the contracted mouse aortic ring (FIGS. 3A and 3B) or rat pulmonary arterial ring (FIGS. 3C and 3D) was relaxed in a concentration-dependent manner. […] When rat pulmonary artery was contracted by K+ (30 mM) of a high concentration, modafinil relaxed the contracted artery in a concentration-dependent manner (FIG. 3E). When the concentration-dependent reaction of rat pulmonary artery was fitted to Hill's equation, the IC50 of modafinil was determined to be 10.5±0.4 nM (FIG. 3F).

KCa3.1 channel [2] = biological target: T1, KCa3.1 channel (Mus musculus, UniProt O89109); assay: Whole-cell patch-clamp of KCa3.1 currents in NIH-3T3 fibroblasts; assay type: cell-based
T1 construct: cells which were not exposed to modafinil or forskolin were immunoblotted by anti-KCa3.1 antibody to confirm the presence of KCa3.1 channels; endogenous in cells; host or cells: NIH-3T3 fibroblasts
T1 sequence (O89109 whole entry): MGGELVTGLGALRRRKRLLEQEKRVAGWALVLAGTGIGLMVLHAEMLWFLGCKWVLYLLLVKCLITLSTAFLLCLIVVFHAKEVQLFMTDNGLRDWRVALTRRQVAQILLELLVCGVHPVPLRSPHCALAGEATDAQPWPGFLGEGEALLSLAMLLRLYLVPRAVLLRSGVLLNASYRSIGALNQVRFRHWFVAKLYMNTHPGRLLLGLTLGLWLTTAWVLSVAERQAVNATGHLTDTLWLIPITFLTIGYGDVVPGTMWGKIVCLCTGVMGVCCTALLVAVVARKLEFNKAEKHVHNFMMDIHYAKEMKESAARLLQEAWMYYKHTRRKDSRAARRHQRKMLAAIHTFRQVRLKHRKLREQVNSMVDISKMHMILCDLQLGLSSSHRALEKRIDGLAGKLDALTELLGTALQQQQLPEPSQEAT
Method: (§2) Electrophysiological analysis was performed according to the methods reported by Nilius and the like [Nilius et al., 1993, Pflugers Arch., 424(3-4): 285-293]. The patch-clamp technique was used in the whole-cell and excised patch configurations at room temperature. Whole-cell currents were measured using ruptured patches. Currents were monitored using an appropriate amplifier (EPC-10, HEKA, Lambrecht, Germany). In the whole cell experiment, we applied a voltage ramp from −100 mV to +100 mV with a 10 sec interval (650 ms duration) or voltage steps from a holding potential of −60 mV to potentials ranging from −100 mV to +100 mV in 20 mV increments (1 sec duration) with a 5 sec interval. Currents were recorded at a sampling rate of 1-4 kHz. Inside-out voltage clamps were performed using glass electrodes of tip resistance of 8-10 MΩ. Data were filtered at 1 KHz and stored in a computer for analysis using standard software (Axoscope 9.0, Axon Instruments, Foster City, Calif., USA). For some experiments, channel activity was expressed as the product of the number of channels times open probability (NPo), where NPo=Σ[(open time×number of open channels)/Total time of record].
(§3) The standard external solution contains the following substance within NaOH solution of pH 7.4; 150 mM NaCl, 6 mM KCl, 1.5 mM CaCl2, 1 mM MgCl2, 10 mM HEPES, and 10 mM glucoses. The osmolarity of this solution, as determined by an osmometer (Fiske, Norwood, Mass., USA), was 320±5 mOsm. In the inside-out mode, the bath solution contains 150 mM KCl, 0.5 mM MgCl2, 10 mM HEPES within KOH solution of pH 7.2, and the pipette solution contains 150 mM NaCl, 6 mM KCl, 1 mM MgCl2, 10 mM HEPES, 10 mM glucoses, 5 mM EGTA within NaOH solution of pH 7.4. Free Ca2+ concentrations in the pipette or bath solutions were adjusted to 1 μM by adding appropriate amounts of Ca2+ (calculated using CaBuf software; G. Droogmans, Leuven, ftp://ftp.cc.kuleuven.ac.be/pub/droogmans/cabuf.zip) in the presence of 5 mM EGTA.
KCa3.1 currents were activated by adding 1-ethyl-2-benzimidazolinone (1-EBIO, 100 μM) to the external solution and loading 1 μM Ca2+ via patch pipette in whole-cell clamped NIH-3T3 fibroblasts.

NIH-3T3 fibroblasts = assay: Measurement of intracellular cAMP in NIH-3T3 fibroblasts; assay type: cell-based; conditions: for intracellular cAMP concentration: NIH-3T3 cells
Method: Meanwhile, NIH-3T3 fibroblasts were used to verify the effect on KCa3.1 mediated diseases. NIH-3T3 fibroblasts (CRL-2795; American Type Culture Collection, VA, USA) were maintained in the following manner. Cells were cultivated as a monolayer in Dulbecco's Modified Eagle Medium (DMEM, Hyclone, Logan, Utah, USA) added with 10% fetal bovine serum (FBS), 100 units/ml penicillin, and 100 μg/ml streptomycin. All cells were maintained at 37° C. in humidified condition under 5% CO2. Media were changed twice weekly, and cultures were passaged at a dilution of 1:5 weekly. The medium was then removed and replaced with fresh medium, and the cells were maintained for the time periods indicated.
NIH-3T3 fibroblasts were incubated with modafinil for 3 minutes within incomplete media. The concentration of cAMP (adenosine 3′,5′-cyclic monophosphate) from lysate was determined in each sample using a Parameter cAMP assay kit (R&D systems) according to the manufacturer's instructions.

KCa3.1 channel [3] = biological target: T1, KCa3.1 channel; assay: Inside-out patch single channel recording of KCa3.1 channels in NIH-3T3 cells; assay type: cell-based
Method: as §2, §3
In inside-out patches, KCa3.1 channels were activated by clamping Ca2+ concentration of the bath solution to 1 μM and applying 1-EBIO. The holding potential was then changed from −70 to 50 mV (FIG. 7). The single channel currents were inhibited by TRAM-34. […] The present inventors then applied modafinil (30 or 100 nM) to the bath solution. […] The open probability was also not changed by modafinil (FIGS. 7A and 7B). A linear fit of the data between 50 to −70 mV yielded a slope conductance of 38.1 pS in the control group and 39.4 pS in the presence group of modafinil (FIG. 7C).

KCa3.1 channel [4] = assay: Western blotting of KCa3.1 channel phosphorylation in NIH-3T3 cells; assay type: cell-based
Method: After the treatment, cells were washed once in ice-cold phosphate buffered saline (PBS) and lysed in protein extraction buffer containing protease inhibitor cocktail. Protein concentration in the supernatant was determined by Bradford protein assay. For Western blot analysis, 30 μg of protein was subjected to SDS-PAGE, and proteins were then transferred to a nitrocellulose membrane. Membranes were blocked for 1 hour with TBST (10 mM Tris-HCl, 150 mM NaCl, and 1% (v/v) Tween-20, pH 7.6) containing 5% bovine serum albumin (BSA) at room temperature. The blots were incubated for 3 hours with rabbit anti-P-PKA substrate antibody followed by incubation with horseradish peroxidase-conjugated secondary antibodies for 1 hour. Bands were visualized by chemiluminescence. Data collection and processing were performed using a luminescent image analyzer LAS-3000 and IMAGE GAUSE software (Fuji Film, Japan).

mouse aortic rings = assay: Contraction measurement on isolated mouse aortic rings; conditions: mouse aortic rings contracted by norepinephrine (0.1 μM), Hill's equation; read-out: IC50 of relaxation of contracted rings
Method: as §1, with “K+. […]” for “K+.”

[5] = test system: mouse aortic smooth muscle cells; assay: Measurement of intracellular cAMP in cultured mouse aortic smooth muscle cells; assay type: cell-based
Method: Single smooth muscle cells (SMCs) were used to examine the effect of modafinil on vascular diseases. Single smooth muscle cells were separated from an aorta of the mouse. Three to four-month-old mice of either gender were anaesthetized with pentobarbital sodium (50 mg/kg weight) and sacrificed by cervical dislocation. Thoracic aortas were dissected out in Ca2+-free external solution and dissociated by incubation in papain (1 mg/ml) for 5 min followed by incubation in collagenase (1.5 mg/ml), bovine serum albumin (BSA; 2 mg/ml) and dithiothreitol (1 mg/ml) for 10 to 20 min in Ca2+-free external solution at 37° C. Segments were then transferred to fresh Ca2+-free external solution, and single mouse SMCs were dispersed with gentle agitation using a glass pipette. Mouse aortic SMCs were cultivated in Dulbecco's Modified Eagle Medium (DMEM) containing 10% fetal bovine serum (FBS) plus 1% minimum essential amino acids (Life Technologies). Cell culture was maintained at 37° C. in fully humidified air with 5% CO2.
Cultured mouse aortic SMCs were incubated with modafinil for 3 minutes within incomplete media. The concentration of cAMP (adenosine 3″,5″-cyclic monophosphate) from lysate was determined in each sample using a Parameter cAMP assay kit (R&D Systems) according to the manufacturer's instructions.

[6] = currents activated by 1 μM Ca2+ and 1-EBIO 100 μM
[7] = modafinil 30 or 100 nM in bath solution

Structure (SMILES): CNC(=O)C[S+]([O-])C(c1ccccc1)c1ccccc1 (centres unmarked) [M015, 2-(benzhydrylsulfinyl)-N-methylacetamide]
- effect on vascular smooth muscle contraction [1]: relaxed
- effect on KCa3.1 currents (KCa3.1 channel [2]; [6]): inhibited
- intracellular cAMP concentration (NIH-3T3 fibroblasts): increased the intracellular cAMP concentration in a concentration-dependent manner

Structure (SMILES): NC(=O)C[S+]([O-])C(c1ccccc1)c1ccccc1 (centres unmarked) [modafinil, 2-(benzhydrylsulfinyl) acetamide]
- slope conductance of single KCa3.1 channel (KCa3.1 channel [3]; linear fit between 50 to -70 mV, in the presence of modafinil): 39.4 pS
- open probability of KCa3.1 channels (KCa3.1 channel [3]; [7]): not changed
- single channel activity of KCa3.1 channels (KCa3.1 channel [3]; [7]): did not change
- KCa3.1 channel phosphorylation (KCa3.1 channel [4]; NIH-3T3 cells, treatment for 5 min): increased KCa3.1 phosphorylation in a concentration-dependent manner
- IC50 ([1]; read-out: IC50 of relaxation of contracted artery): 10.5 ± 0.4 nM
- IC50 ([1]; read-out: IC50 of relaxation of contracted rings): 10.1 ± 0.1 nM
- IC50 (KCa3.1 channel [2]): 6.8 ± 0.7 nM
- effect on KCa3.1 currents in cells pretreated by H89 (KCa3.1 channel [2]; H89 (10 μM) pretreatment): not inhibited
- effect on KCa3.1 currents with PKI14-22 in the pipette solution (KCa3.1 channel [2]; PKI14-22 (10 μM) in pipette solution): not affected
- concentration for maximal inhibition of KCa3.1 currents (KCa3.1 channel [2]; [6]): 100.0 ± 5.7 nM
- IC50 (mouse aortic rings): 11.9 ± 0.3 nM
- concentration of cAMP compared to treating the cell with 10 μM of forskolin (NIH-3T3 fibroblasts; NIH-3T3 cell, 1 μM of modafinil): 2 times
- intracellular cAMP concentration (NIH-3T3 fibroblasts): increased in a concentration-dependent manner
- intracellular cAMP concentration ([5]; cultured mouse aortic SMCs exposed for 3 minutes): increased in a concentration-dependent manner
- concentration from which intracellular cAMP concentration significantly increased ([5]; primary cultured mouse aortic smooth muscle cells, 3 min, p<0.01): 10 nM

Structure (SMILES): O=C(CSC(c1ccccc1)c1ccccc1)NCC1CCCO1 (centres unmarked) [M006, 2-(benzhydrylthio)-N-((tetrahydrofuran-2-yl)methyl)acetamide]
- effect on vascular smooth muscle contraction [1]: relaxed
- effect on KCa3.1 currents (KCa3.1 channel [2]; [6]): inhibited
- intracellular cAMP concentration (NIH-3T3 fibroblasts): increased the intracellular cAMP concentration in a concentration-dependent manner

Structure (SMILES): O=S(=O)(NCCNC/C=C/c1ccc(Br)cc1)c1cccc2cnccc12 [H89]
- effect on channel phosphorylation in the resting state and by forskolin (KCa3.1 channel [4]; NIH-3T3 cells pretreated with PKA inhibitor for 30 min): completely abolished

Structure (SMILES): Clc1ccccc1C(c1ccccc1)(c1ccccc1)n1cccn1 [TRAM-34]
- effect on single channel currents (KCa3.1 channel [3]; activated by 1 μM Ca2+ and 1-EBIO): inhibited
- effect on KCa3.1 currents (KCa3.1 channel [2]; [6]): inhibited

Structure (SMILES): CC#CCC(C)[C@H](O)/C=C/[C@@H]1[C@H]2C/C(=C/CCCC(=O)O)C[C@H]2C[C@H]1O (some centres unmarked) [iloprost]
- IC50 ([1]; read-out: IC50 of inhibition of rat pulmonary arterial contraction): 39.4 ± 5.1 nM
- intracellular cAMP concentration (NIH-3T3 fibroblasts): increased cAMP concentration

Structure (SMILES): O=C(CSC(c1ccccc1)c1ccccc1)Nc1ccccc1 [M008, 2-(benzhydrylthio)-N-phenylacetamide]
- effect on vascular smooth muscle contraction [1]: relaxed
- effect on KCa3.1 currents (KCa3.1 channel [2]; [6]): inhibited
- intracellular cAMP concentration (NIH-3T3 fibroblasts): increased the intracellular cAMP concentration in a concentration-dependent manner

Structure (SMILES): O=C(C[S+]([O-])C(c1ccccc1)c1ccccc1)NCC1CCCO1 (centres unmarked) [M020, 2-(benzhydrylsulfinyl)-N-((tetrahydrofuran-2-yl)methyl) acetamide]
- effect on vascular smooth muscle contraction [1]: relaxed
- effect on KCa3.1 currents (KCa3.1 channel [2]; [6]): inhibited
- intracellular cAMP concentration (NIH-3T3 fibroblasts): increased the intracellular cAMP concentration in a concentration-dependent manner

Reference: patent US9259412B2, “Composition of the treatment of vascular diseases or KCa3.1 channel-mediated diseases comprising modafinil or derivatives thereof” (EWHA UNIVERSITY—INDUSTRY COLLABORATION FOUNDATION, priority 2011, dated 2016)
